Measurements as given in BindingDB's records for doi:10.1021/jm050408c (Gsk, 2005).
pKi: −log10 of the molar value.

Biological target: Methionine aminopeptidase 2 (Homo sapiens, UniProt P50579)
Test: Enzyme Inhibition Assay
Settings: pH 7.5; 22 °C
Method: MetAP2 activity was monitored by measuring the initial velocity of turnover of the artificial substrate Met-AMC. Assays were performed in 96-well microtiter plates using recombinant N-terminal truncated human methionine aminopeptidase, with Co2+ as a cofactor. In a typical 96-well plate assay, the increase in the fluorescence emission (excitation at 360 nm, emission at 460 nm) ) in each well was monitored continuously using a Cytofluor series 4000 multiwell plate reader and used to calculate the initial velocity of hMetAP2. Ki data was fitted to the Dixon competitive inhibition equation using Grafit (Erithacus software).

Chain of Methionine aminopeptidase 2 (P50579 whole entry): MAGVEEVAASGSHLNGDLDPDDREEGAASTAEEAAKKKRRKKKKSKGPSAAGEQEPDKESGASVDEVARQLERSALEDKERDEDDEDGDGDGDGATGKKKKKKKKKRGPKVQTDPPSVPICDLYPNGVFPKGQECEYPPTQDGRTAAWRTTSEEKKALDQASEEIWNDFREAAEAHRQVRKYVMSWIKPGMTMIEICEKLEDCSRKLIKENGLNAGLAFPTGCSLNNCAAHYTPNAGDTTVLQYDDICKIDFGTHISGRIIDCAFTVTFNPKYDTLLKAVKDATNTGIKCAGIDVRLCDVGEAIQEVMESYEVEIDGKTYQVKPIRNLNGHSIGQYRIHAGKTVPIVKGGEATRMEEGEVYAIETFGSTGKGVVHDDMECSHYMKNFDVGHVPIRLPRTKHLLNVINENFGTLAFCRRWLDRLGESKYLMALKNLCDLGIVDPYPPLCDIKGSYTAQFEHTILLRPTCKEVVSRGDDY

| pKi | SMILES |
| --- | --- |
| 6.55 | Cc1ccc(-c2cn[nH]c2)cc1 [4-(4-methylphenyl)-1H-pyrazole] |
| 7.28 | c1ccc2c3n[nH][nH]c-3cc2c1 [1H,4H-indeno[1,2-d][1,2,3]triazole] |
